In US4189607A, “Anilionotropone derivatives” (priority 1979, dated 1980):
Structures can show the parent of a compound that is named as a salt.

Legend:
acetic acid writhing = assay: Analgesic activity, acetic acid writhing test (Koster et al); assay type: in vivo, Male ddY strain mice; details: p.o.
Source text: Experiment 3: Analgesic activity
Male ddY strain mice in groups of ten each were used for evaluation of analgesic activity by the acetic acid writhing test (Koster et al, Federation Proc., 18, 412 (1959). The results are shown in Tables 3 and 4.

rat paw edema = assay: Anti-inflammatory activity, carrageenin rat paw edema (Winter et al); assay type: in vivo, Male Wistar strain rats; details: p.o., four hours after injection of carrageenin
Description: Experiment 1: Anti-inflammatory activity
Anti-inflammatory activity was evaluated by the method of rat paw edema (Winter et al, J. Pharmacol. Exp. Ther., 141, 369 (1963) ). Six male Wistar strain rats were used in each group and the volume of each paw was measured four hours after injection of carrageenin.

gastric lesions = assay: Gastric ulcerogenicity (gastric lesions); assay type: in vivo, Male Wistar strain rats; details: p.o., 18 hours fasting prior to autopsy
Source text: Experiment 4: Gastric ulcerogenicity […] The gastric lesions induced was expressed as incidence (number of rats with gastric lesions/number of the test rats) and lesion index (sum of areas damaged).

[1] = Analgesic activity, method of Randall-Selitto with slight modification; assay type: in vivo, Male Wistar strain rats; details: 25 mg/kg orally, vs Cpd. 3 at 100 mg/kg
Description: Experiment 2: Analgesic activity
Male Wistar strain rats in groups of six each were used for the evaluation of analgesic activity by the method of Randall-Selitto (Arch. Intern. Pharmacodyn., 111, 409 (1957) ) with slight modification. In a graph where the load was plotted on the ordinate and the time was plotted on the abscissa, the curve obtained when Cpd. 1 was orally administered in a dose of 25 mg/kg was substantially in agreement with the curve obtained when Cpd. 3 was orally administered in a dose of 100 mg/kg. […] 1 was administered in a dose of 50 mg/kg and the Cpd 3 was administered in a dose of 200 mg/kg.

[2] = Table 6, 100 + 200 mg/kg, 200 mg/kg

| Structure (SMILES) | Inhibition (%) (acetic acid writhing; Table 3, 100 mg/kg) | Inhibition (%) (rat paw edema; Table 1, 25 mg/kg) | Inhibition (%) (rat paw edema; Table 1, 50 mg/kg) | Inhibition (%) (rat paw edema; Table 1, 100 mg/kg) | Incidence (number of rats with gastric lesions/number of the test rats) (gastric lesions; Table 5, 25 + 50 mg/kg) | Lesion index (sum of areas damaged) (gastric lesions; Table 5, 25 + 50 mg/kg) [mm^2] | Incidence (number of rats with gastric lesions/number of the test rats) (gastric lesions; Table 5, 50 + 100 mg/kg) | Lesion index (sum of areas damaged) (gastric lesions; Table 5, 50 + 100 mg/kg) [mm^2] | Incidence (number of rats with gastric lesions/number of the test rats) (gastric lesions; Table 5, 100 + 200 mg/kg) | Lesion index (sum of areas damaged) (gastric lesions; Table 5, 100 + 200 mg/kg) [mm^2] | Load-time curve compared with Cpd. 3 [1] | Inhibition (%) (acetic acid writhing; Table 4, 100 mg/kg) | Inhibition (%) (rat paw edema; Table 2, 100 mg/kg, 100 mg/kg) | Incidence (number of rats with gastric lesions/number of the test rats) (gastric lesions; [2]) | Lesion index (sum of areas damaged) (gastric lesions; [2]) [mm^2] | Inhibition (%) (acetic acid writhing; Table 3, 200 mg/kg) | Inhibition (%) (rat paw edema; Table 2, 100 mg/kg) | Lesion index (sum of areas damaged) (gastric lesions; Table 6, 100 + 200 mg/kg) [mm^2] |
| --- | --- | --- | --- | --- | --- | --- | --- | --- | --- | --- | --- | --- | --- | --- | --- | --- | --- | --- |
| CC(C(=O)O)c1ccc(Nc2cccccc2=O)cc1 (centres unmarked) [Cpd. 1, 2-[p-(2-troponylamino)phenyl]propionic acid] | 54.8 | 56.8 | 50.9 | 61.0 | 0/6 | 0 | 1/6 | 0.02 ± 0.017 | 4/6 | 0.52 ± 0.17 | substantially in agreement with the curve obtained when Cpd. 3 was orally administered in a dose of 100 mg/kg | – | – | – | – | – | – | – |
| CC(C(=O)O)c1cccc(Nc2cccccc2=O)c1 (centres unmarked) [Cpd. 2, 2-[m-(2-troponylamino)phenyl]propionic acid] | – | – | – | – | – | – | – | – | – | – | – | 31.2 | 43.0 | 0/6 | 0 | – | – | – |
| CC(C(=O)O)c1cccc(Nc2cccccc2=O)c1 (centres unmarked) [Cpd. 2-Ca salt, calcium 2-[m-(2-troponylamino)phenyl]propionate] | – | – | – | – | – | – | – | – | – | – | – | 31.2 | 43.2 | 2/6 | 0.12 ± 0.10 | – | – | – |
| CCCCC1C(=O)N(c2ccccc2)N(c2ccccc2)C1=O [Cpd. 3, phenylbutazone, reference compound] | – | 22.4 | 34.7 | 54.5 | – | 0.02 ± 0.014 | – | 1.43 ± 0.43 | – | 6.82 ± 1.40 | – | 10.7 | – | – | – | 18.5 | 32.5 | 7.70 ±3.23 |
